# According to patent US9113629B2, “4-amino-6-(4-substituted-phenyl)-picolinates and 6-amino-2-(4-substituted-phenyl)-pyrimidine-4-carboxylates and their use as herbicides” (DOW AGROSCIENCES LLC, priority 2013, dated 2015):
# Where two headings read alike, the source gives them in different places.
# Key:
# [1] = tested on: Key Grass and Sedge Weeds as well as Grass Crops; test: Post-emergent Test II herbicidal activity (Table 6); type: in vivo; conditions: post-emergence, 336 h; for pest or weed control at 70 g/ha: application rate 70 g ai/ha; for pest or weed control at 140 g/ha: application rate 140 g ai/ha
# In short: (§1)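 Spray rates: a highest rate plus ½×, ¼×, ⅛×, 1/16×, all delivered at 187 L/ha to plants at the first–second true leaf stage. Readout is a visual percent injury score at 14 d, where 100 means complete kill.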
# [2] = tested on: Key Broadleaf Weed and Crop Species; test: Post-emergent Test II herbicidal activity (Table 5); type: in vivo; conditions: post-emergence, 336 h, post-emergent, 14 days after application; for pest or weed control at 70 g/ha: 70 g ai/ha; for pest or weed control at 140 g/ha: 140 g ai/ha
# In short: as §1
# [3] = Triticum aestivum, TRZSS (wheat), read-out: Visual Growth Reduction (%) 14 Days After Application, TRZSS
# [4] = CYPES: yellow nutsedge (Cyperus esculentus), read-out: Visual Growth Reduction (%) 14 Days After Application, CYPES
# [5] = DIGSA: crabgrass (Digitaria sanguinalis), read-out: Visual Growth Reduction (%) 14 Days After Application, DIGSA
# [6] = ECHCG: barnyardgrass (Echinochloa crus-galli), read-out: Visual Growth Reduction (%) 14 Days After Application, ECHCG
# [7] = ORYSA: rice (Oryza sativa), read-out: Visual Growth Reduction (%) 14 Days After Application, ORYSA
# [8] = SETFA: giant foxtail (Setaria faberi), read-out: Visual Growth Reduction (%) 14 Days After Application, SETFA
# [9] = SORVU: grain sorghum (Sorghum vulgare), read-out: Visual Growth Reduction (%) 14 Days After Application, SORVU
# [10] = ZEAMX: maize, corn (Zea mays), read-out: Visual Growth Reduction (%) 14 Days After Application, ZEAMX
# [11] = ABUTH: velvetleaf (Abutilon theophrasti), read-out: Visual Growth Reduction (%) 14 Days After Application ABUTH
# [12] = AMARE: redroot pigweed (Amaranthus retroflexus), read-out: Visual Growth Reduction (%) 14 Days After Application AMARE
# [13] = BRSNN: oilseed-rape, canola (Brassica napus), read-out: Visual Growth Reduction (%) 14 Days After Application BRSNN
# [14] = CHEAL: lambsquarters (Chenopodium album), read-out: Visual Growth Reduction (%) 14 Days After Application CHEAL
# [15] = EPHHL: wild poinsettia (Euphorbia heterophylla), read-out: Visual Growth Reduction (%) 14 Days After Application EPHHL
# [16] = HELAN: sunflower (Helianthus annuus), read-out: Visual Growth Reduction (%) 14 Days After Application HELAN
# [17] = VIOTR: wild pansy (Viola tricolor), read-out: Visual Growth Reduction (%) 14 Days After Application VIOTR
smiles,measurement,setting,value
"Nc1c(F)c(-c2cc(F)c(Br)cc2F)nc(C(=O)O)c1Cl [Compound 42, 4-amino-6-(4-bromo-2,5-difluorophenyl)-3-chloro-5-fluoropicolinic acid]",pest or weed control at 70 g/ha,[1]; [3],60 to 74%
same,pest or weed control at 140 g/ha,[1]; [3],75 to 84%
same,pest or weed control at 70 g/ha,[1]; [4],95 to 100%
same,pest or weed control at 140 g/ha,[1]; [4],95 to 100%
same,pest or weed control at 70 g/ha,[1]; [5],75 to 84%
same,pest or weed control at 140 g/ha,[1]; [5],85 to 94%
same,pest or weed control at 70 g/ha,[1]; [6],95 to 100%
same,pest or weed control at 140 g/ha,[1]; [6],95 to 100%
same,pest or weed control at 70 g/ha,[1]; [7],30 to 44%
same,pest or weed control at 140 g/ha,[1]; [7],30 to 44%
same,pest or weed control at 70 g/ha,[1]; [8],95 to 100%
same,pest or weed control at 140 g/ha,[1]; [8],95 to 100%
same,pest or weed control at 70 g/ha,[1]; [9],95 to 100%
same,pest or weed control at 140 g/ha,[1]; [9],95 to 100%
same,pest or weed control at 70 g/ha,[1]; [10],75 to 84%
same,pest or weed control at 140 g/ha,[1]; [10],60 to 74%
same,pest or weed control at 70 g/ha,[2]; [11],85 to 94%
same,pest or weed control at 140 g/ha,[2]; [11],95 to 100%
same,pest or weed control at 70 g/ha,[2]; [12],95 to 100%
same,pest or weed control at 140 g/ha,[2]; [12],95 to 100%
same,pest or weed control at 70 g/ha,[2]; [13],95 to 100%
same,pest or weed control at 140 g/ha,[2]; [13],95 to 100%
same,pest or weed control at 70 g/ha,[2]; [14],95 to 100%
same,pest or weed control at 140 g/ha,[2]; [14],95 to 100%
same,pest or weed control at 70 g/ha,[2]; [15],95 to 100%
same,pest or weed control at 140 g/ha,[2]; [15],95 to 100%
same,pest or weed control at 70 g/ha,[2]; [16],95 to 100%
same,pest or weed control at 140 g/ha,[2]; [16],95 to 100%
same,pest or weed control at 70 g/ha,[2]; [17],95 to 100%
same,pest or weed control at 140 g/ha,[2]; [17],95 to 100%
"Nc1c(Cl)c(C(=O)O)nc(-c2ccc(Br)c(F)c2)c1Cl [Compound 43, 4-Amino-6-(4-bromo-3-fluorophenyl)-3,5-dichloropicolinic acid]",pest or weed control at 70 g/ha,[1]; [3],60 to 74%
same,pest or weed control at 140 g/ha,[1]; [3],60 to 74%
same,pest or weed control at 70 g/ha,[1]; [4],95 to 100%
same,pest or weed control at 140 g/ha,[1]; [4],95 to 100%
same,pest or weed control at 70 g/ha,[1]; [5],75 to 84%
same,pest or weed control at 140 g/ha,[1]; [5],75 to 84%
same,pest or weed control at 70 g/ha,[1]; [6],75 to 84%
same,pest or weed control at 140 g/ha,[1]; [6],60 to 74%
same,pest or weed control at 70 g/ha,[1]; [7],0 to 29%
same,pest or weed control at 140 g/ha,[1]; [7],30 to 44%
same,pest or weed control at 70 g/ha,[1]; [8],60 to 74%
same,pest or weed control at 140 g/ha,[1]; [8],60 to 74%
same,pest or weed control at 70 g/ha,[1]; [9],95 to 100%
same,pest or weed control at 140 g/ha,[1]; [9],95 to 100%
same,pest or weed control at 70 g/ha,[1]; [10],75 to 84%
same,pest or weed control at 140 g/ha,[1]; [10],75 to 84%
same,pest or weed control at 70 g/ha,[2]; [11],85 to 94%
same,pest or weed control at 140 g/ha,[2]; [11],85 to 94%
same,pest or weed control at 70 g/ha,[2]; [12],95 to 100%
same,pest or weed control at 140 g/ha,[2]; [12],95 to 100%
same,pest or weed control at 70 g/ha,[2]; [13],95 to 100%
same,pest or weed control at 140 g/ha,[2]; [13],95 to 100%
same,pest or weed control at 70 g/ha,[2]; [14],75 to 84%
same,pest or weed control at 140 g/ha,[2]; [14],75 to 84%
same,pest or weed control at 70 g/ha,[2]; [15],60 to 74%
same,pest or weed control at 140 g/ha,[2]; [15],60 to 74%
same,pest or weed control at 70 g/ha,[2]; [16],95 to 100%
same,pest or weed control at 140 g/ha,[2]; [16],95 to 100%
same,pest or weed control at 70 g/ha,[2]; [17],95 to 100%
same,pest or weed control at 140 g/ha,[2]; [17],95 to 100%
